The results in this text go back to patent publication US9980943B2, “Methods of treating muscular dystrophy” (BOARD OF REGENTS OF THE NEVADA SYSTEM OF HIGHER EDUCATION, …, priority 2013, dated 2018).

Common to all, as to format: cell-based, mouse
In test [1] the test system is α7 integrin (LacZ reporter in α7βgal+/− myoblasts). The experiment in a line: Myoblast α7+/LacZ integrin FDG assay (Burkin assay in myoblasts, 96-well). As to conditions: 96-well; for Burkin Assay in Myoblasts, signal relative to DMSO: α7+/LacZ myoblasts; for Burkin Assay in Myoblasts, value relative to DMSO: SU9516 analogs, N=3-6.
In test [2] the test system is β-galactosidase in CMV-LacZ C2C12 myoblasts. The experiment in a line: CMV-LacZ secondary screen in C2C12 myoblasts (β-Gal stabilizing assay). To be noted: for CMV-LACZ in Myoblasts (β-galactosidase activity relative to DMSO): CMV-LacZ C2C12 myoblasts; for CMV-LACZ in Myoblasts, value relative to DMSO: SU9516 analogs, C2C12 CMV-LacZ, N=2. The essentials: (§1)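 Dose-response runs at 0.5–40 μM (0.5, 1, 5, 10, 20, 40 μM; N=2 per point) used a clonal C2C12 line carrying CMV-LacZ. Cells were assayed as myoblasts or as differentiated myotubes, and β-galactosidase levels were read with the FDG fluorogenic substrate.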

Test [3] has as its system α7 integrin (LacZ reporter in α7+/LacZ myotubes). The experiment in a line: Myotube α7 integrin FDG assay (Burkin assay in myotubes, 96-well). To be noted: for Burkin Assay in Myotubes, value relative to DMSO: SU9516 analogs, 96-well, N=3-6.
Test [4] concerns β-galactosidase in CMV-LacZ C2C12 myotubes. The experiment in a line: CMV-LacZ secondary screen in C2C12 myotubes (β-Gal stabilizing assay). To be noted: for CMV-LACZ in Myotubes, signal relative to DMSO: C2C12 CMV-LacZ myotubes, fold relative to DMSO; for CMV-LACZ in Myotubes, value relative to DMSO: SU9516 analogs, C2C12 CMV-LacZ, N=2. The essentials:
as §1

In the case of `O=S(=O)(NC(=NC1CCCCC1)c1ccccc1F)c1ccccc1` [MLS000947910-01], the “Burkin Assay in Myoblasts, signal relative to DMSO” value in test [1] (0.5 uM) amounted to 1.024; in test [1] (1 uM), 1.188; in test [1] (5 uM), 1.033; in test [1] (10 uM), 1.0429; in test [1] (20 uM), 1.047; in test [1] (40 uM) it was 1.018. The “CMV-LACZ in Myoblasts (β-galactosidase activity relative to DMSO)” value in test [2] (0.5 uM) was determined as 1.0094; in test [2] (1 uM), 0.9250; in test [2] (5 uM) it was 0.9452; in test [2] (10 uM), 1.0379; in test [2] (20 uM) it was 1.0870; in test [2] (40 uM), 1.0500. The “Burkin Assay in Myotubes, α7 integrin LacZ reporter signal relative to DMSO” value in test [3] (0.5 uM) is recorded as 1.134; in test [3] (1 uM), 1.101; in test [3] (5 uM), 1; in test [3] (10 uM), 1.035; in test [3] (20 uM), 0.9628; in test [3] (40 uM), 0.9515. In addition, the “CMV-LACZ in Myotubes, signal relative to DMSO” value in test [4] (0.5 uM) worked out at 1.0333; in test [4] (1 uM), 0.8348; in test [4] (5 uM) it was 1.2332; in test [4] (10 uM) it was 0.8930; in test [4] (20 uM) it was 1.0165; in test [4] (40 uM) it was 1.0082.

`Cc1cc(C)c(/C=C2\C(=O)Nc3ccccc32)[nH]1` [NCGC00094381-03]: the “Burkin Assay in Myoblasts, value relative to DMSO” value amounted to 0.9368 in test [1] (0.5 uM); 0.9952 in test [1] (1 uM); 0.7327 in test [1] (5 uM); 0.6579 in test [1] (10 uM); 0.6668 in test [1] (20 uM); 0.5203 in test [1] (40 uM). Also, the “CMV-LACZ in Myoblasts, value relative to DMSO” value is recorded as 0.9504 in test [2] (0.5 uM); 0.8667 in test [2] (5 uM); 1.0089 in test [2] (10 uM); 0.7777 in test [2] (20 uM); 1.0253 in test [2] (40 uM). In addition, the “Burkin Assay in Myotubes, value relative to DMSO” value amounted to 0.8564 in test [3] (0.5 uM); 0.9334 in test [3] (1 uM); 0.9015 in test [3] (5 uM); 1.024 in test [3] (10 uM); 0.9497 in test [3] (20 uM); 1.151 in test [3] (40 uM). Further, the “CMV-LACZ in Myotubes, value relative to DMSO” value in test [4] (0.5 uM) came to 0.9227; in test [4] (1 uM), 1.2227; in test [4] (5 uM), 1.1125; in test [4] (10 uM) it was 1.5444; in test [4] (20 uM), 10.9800; in test [4] (40 uM), 18.6030.
